Columns and labels:
[1] = Biodistribution studies incl. blocking experiments; format: in vivo; details: healthy BALB/c mice
Procedure: For biodistribution studies 6 week old female BALB/c mice (n=3) were injected with 0.1 nmol (100 μL, approx. 1 MBq) of labelled compound via the lateral tail vein and sacrificed after 10, 30, or 60 min by cervical dislocation. The mice were dissected, blood and organs (spleen, pancreas, stomach, intestine, liver, kidney, heart, lung, muscle, and bone) were weighed, and their activity measured in a γ-counter. For blocking experiments, mice were co-injected with 100 μL of a 277 mM Galactose/PBS solution. In case of [^68Ga]Ga-TRAP-GalNAc a 277 mM N-Acetylgalactose solution was used.

[2] = Partition coefficient (log D), n-Octanol/PBS; format: physicochemical
Procedure: The vials were vortexed for 5 min at 1,500 rpm and then centrifuged for 5 min at 20,000 rcf (Eppendorf Centrifuge 5424).

[3] = 30 min p.i., blocking with 277 mM galactose

## O=C(CCP(=O)(O)CN1CCN(CP(=O)(O)CCC(=O)NCc2cn([C@@H]3O[C@H](CO)[C@H](O)[C@H](O)[C@H]3O)nn2)CCN(CP(=O)(O)CCC(=O)NCc2cn([C@@H]3O[C@H](CO)[C@H](O)[C@H](O)[C@H]3O)nn2)CC1)NCc1cn(C2O[C@H](CO)[C@H](O)[C@H](O)[C@H]2O)nn1 (stereo partly drawn) [Galacto-TRAP]
[1]; [3]
  Biodistribution Liver: 3.24±0.2 % ID/g

## O=C(CCP(=O)([O-])CN1CCN(CP(=O)([O-])CCC(=O)NCc2cn([C@@H]3O[C@H](CO)[C@H](O)[C@H](O)[C@H]3O)nn2)CCN(CP(=O)([O-])CCC(=O)NCc2cn([C@@H]3O[C@H](CO)[C@H](O)[C@H](O)[C@H]3O)nn2)CC1)NCc1cn([C@@H]2O[C@H](CO)[C@H](O)[C@H](O)[C@H]2O)nn1.[68Ga+3] [[^68Ga]Ga-Galacto-TRAP]
[2]
  logD: −4.16±0.09
[1]; 10 min p.i.
  Biodistribution Femur: 1.11 ± 0.18 % ID/g
  Biodistribution Heart: 6.08 ± 0.51 % ID/g
  Biodistribution Intestine: 1.80 ± 0.16 % ID/g
  Biodistribution Liver: 12.2 ± 1.4 % ID/g
  Biodistribution Lung: 1.97 ± 0.07 % ID/g
  Biodistribution Muscle: 3.25 ± 0.27 % ID/g
  Biodistribution Pancreas: 1.20 ± 0.03 % ID/g
  Biodistribution Spleen: 5.58 ± 0.17 % ID/g
  Biodistribution Stomach: 1.17 ± 0.05 % ID/g
[1]; 30 min p.i.
  Biodistribution Blood: 0.47 ± 0.16 % ID/g
  Biodistribution Femur: 0.44 ± 0.01 % ID/g
  Biodistribution Heart: 5.44 ± 0.75 % ID/g
  Biodistribution Intestine: 0.79 ± 0.15 % ID/g
  Biodistribution Kidneys: 0.88 ± 0.07 % ID/g
  Biodistribution Liver: 5.02 ± 1.08 % ID/g
  Biodistribution Lung: 0.75 ± 0.16 % ID/g
  Biodistribution Pancreas: 0.49 ± 0.07 % ID/g
  Biodistribution Spleen: 2.17 ± 0.54 % ID/g
  Biodistribution Stomach: 0.53 ± 0.05 % ID/g
[1]; [3]
  Biodistribution Blood: 0.43 ± 0.14 % ID/g
  Biodistribution Femur: 0.38 ± 0.06 % ID/g
  Biodistribution Heart: 3.24 ± 0.19 % ID/g
  Biodistribution Intestine: 0.67 ± 0.15 % ID/g
  Biodistribution Kidneys: 0.75 ± 0.11 % ID/g
  Biodistribution Liver: 5.10 ± 0.72 % ID/g
  Biodistribution Lung: 0.68 ± 0.08 % ID/g
  Biodistribution Muscle: 1.35 ± 0.16 % ID/g
  Biodistribution Pancreas: 0.43 ± 0.02 % ID/g
  Biodistribution Spleen: 1.84 ± 0.14 % ID/g
  Biodistribution Stomach: 0.48 ± 0.05 % ID/g
[1]; 60 min p.i.
  Biodistribution Blood: 0.11 ± 0.03 % ID/g
  Biodistribution Femur: 0.10 ± 0.04 % ID/g
  Biodistribution Heart: 4.84 ± 0.66 % ID/g
  Biodistribution Intestine: 0.14 ± 0.02 % ID/g
  Biodistribution Kidneys: 0.60 ± 0.06 % ID/g
  Biodistribution Lung: 0.12 ± 0.01 % ID/g
  Biodistribution Muscle: 0.35 ± 0.05 % ID/g
  Biodistribution Pancreas: 0.12 ± 0.02 % ID/g
  Biodistribution Spleen: 0.52 ± 0.23 % ID/g
  Biodistribution Stomach: 0.11 ± 0.01 % ID/g

Source: patent publication US20260151516A1, “NEW PET TRACER FOR IMAGING OF THE FUNCTIONAL HEPATIC RESERVE” (Medizinische Universität Innsbruck, priority 2022, published 2026)
